Measured values: patent US8535740B2, “Compositions from Nigella sativa” (priority 2002, dated 2013)

What was measured:
[1] = system: C2C12 myocytes; assay: Lipolysis (glycerol / free fatty acid release) in C2C12 myocytes; assay type: cell-based, murine; conditions: test materials 5 or 2.5 μg/mL (FIG. 10)
Protocol: (§1) Cell culture and treatment-Culture and treatment of 3T3-L1 adipocytes and C2C12 myocytes was as described in Example 5. Concentrations of the forskolin positive control and test materials are listed in FIG. 9 for adipocytes and FIG. 10 for myocytes. Glycerol assay-Free fatty acid release from 3T3-L1 adipocytes or C2C12 myocytes was quantified by measuring glycerol secretion into the medium. Glycerol was measured spectrophotometrically using the Free Glycerol Determination Kit ([…], Sigma) and an EL 312e Microplate BIO-KINETICS spectrophotometer (BioTek, Winooski, Vt.). Data analysis-Glycerol release from adipocytes and myocytes was expressed, respectively, as the percent increase in free fatty acid secretion (FIG. 9) and relative glycerol content (glycerol index FIG. 10) ±95% confidence intervals of eight observations for one of three representative experiments.

[2] = system: Caco-2 monolayers; assay: LPS/H2O2-mediated loss of transepithelial electrical resistance in Caco-2 monolayers; assay type: cell-based, human
From the text: Caco-2 Cells—The protocol for growing and differentiation the human Caco-2 colon andenocarcinoma cells was a modification of Protocol 3 as described by Yamashita et al. [Yamashita, S., Konishi, K., Yamazaki, Y., Taki, Y., Sakane, T., Sezaki, H., and Furuyama, Y. (2002) New and better protocols for a short-term Caco-2 cell culture system, J Pharm Sci 91, 669-679]. Caco-2 Human Colon Adenocarcinoma cells were obtained from ATCC (Rockville, Md.; catalog #HTB-37) and maintained in a growth media: DMEM (Dulbecco's Modified Eagles Medium 1×) containing L-glutamine, glucose; Cellgro catalog #35-010CV with the following additions: (1) Penicillin (5,000 IU/mL)/Streptomycin (5,000 μg/mL) Cellgro catalog #30-001C1, (2) 10% FBS—Fetal Bovine Serum, Characterized; Hyclone catalog #SH30071.3, and (3) 1% NEAA—Non Essential Amino Acids; Cellgro catalog #25-025-CI; cells were cultured at 37 C in a humidified air-5% CO2 atmosphere in T175 flasks.
Differentiation of Caco-2 cells to intestinal epithelial cells—BIOCOAT^R HTS Caco-2 Assay System kits (Becton Dickinson, N.J.; catalog #354801) consisting of 24-well fibrillar collagen coated inserts and feeder trays were used in all experiments and plated as follows. Media was removed from the T175 flasks and cells were washed with 10 mLs PBS (phosphate buffered saline 1× without Ca^++, without Mg^++; Cellgro #25-053-CI). […]

[3] = system: 3T3-L1 adipocytes; assay: Lipolysis (glycerol / free fatty acid release) in 3T3-L1 adipocytes; assay type: cell-based, murine; conditions: forskolin 82 μg/mL, test materials 5 μg/mL (FIG. 9)
Protocol: as §1

## CC1=CC(=O)C(C(C)C)=CC1=O [Thymoquinone (Sigma), thymoquinone]
[1]
  free fatty acid release in myocytes: induced free fatty acid release
[2]; 10 uM H2O2 + 50 μg/mL LPS, three hours, positive control set to 100, each material at its tabulated concentration (TQ 5.0, NS8 0.11, NS9 0.99, NS10 0.012, NSSpent#2 0.0005 μg TQ equivalents/mL; Spent#1 5 μg/mL)
  Relative Loss of TEER: 111
[2]; concentrations of Table 6
  effect on LPS/H2O2-mediated loss of TEER: no effect
[3]
  free fatty acid release in adipocytes: induced free fatty acid release
